Results published in patent US20060069132A1, “Azolecarboxamide herbicides” (priority 2004, published 2006).

Legend:
[1] = test system: cocklebur; assay: Test B pre-/postemergence herbicide test; format: in vivo, Xanthium strumarium; conditions: for Cocklebur plant response rating: postemergence
Procedure, shortened: (§1)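 Herbicidal effect was judged by eye on a 0–100 scale after plants stood 13 to 15 days in the greenhouse following pre- or postemergence treatment with surfactant-containing formulations.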

[2] = test system: rice; assay: Test C flooded paddy test; format: in vivo, Oryza sativa
Procedure, shortened: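 Plants were grown to the 1- to 4-leaf stage (2–18 cm) and then treated postemergence, or grown to the 2-leaf stage for the flooded paddy test. They were held in a greenhouse for 12 to 14 days and then scored by eye against controls, where 0 is no effect and 100 is complete control.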

[3] = test system: corn; assay: Test B pre-/postemergence herbicide test; format: in vivo, Zea mays; conditions: for Corn plant response rating: postemergence
Procedure, shortened: as §1

[4] = test system: barnyardgrass; assay: Test C flooded paddy test; format: in vivo, Echinochloa crus-galli
Procedure, shortened: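 Weeds and wheat were sprayed after emergence, at a height of 2 to 18 cm (1–4 leaves), and paddy barnyardgrass was flooded and treated at two leaves. Assessment took place 12–14 days later in the greenhouse on a 0-to-100 visual control scale. A dash means no result was obtained.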

[5] = test system: rice; assay: Test B flooded paddy test; format: in vivo, Oryza sativa; conditions: 1000 g ai/ha, scale 0 to 100 (0 no effect, 100 complete control)
Procedure, shortened: (§2)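 Treated at 2-leaf (paddy) or 1–4-leaf, 2–18 cm (postemergence); greenhouse 13–15 d; visual score vs control, 0 none to 100 complete control; dash = not tested.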

[6] = test system: giant foxtail; assay: Test B pre-/postemergence herbicide test; format: in vivo, Setaria faberi; conditions: for Foxtail, Giant plant response rating: postemergence
Procedure, shortened: as §1

[7] = test system: large crabgrass; assay: Test B pre-/postemergence herbicide test; format: in vivo, Digitaria sanguinalis; conditions: for Crabgrass, Large plant response rating: postemergence
Procedure, shortened: as §1

[8] = test system: smallflower umbrella sedge; assay: Test C flooded paddy test; format: in vivo, Cyperus difformis
[9] = test system: pigweed; assay: Test B pre-/postemergence herbicide test; format: in vivo, Amaranthus retroflexus; conditions: for Pigweed plant response rating: postemergence
Procedure, shortened: as §1

[10] = test system: wild oat; assay: Test B postemergence herbicide test; format: in vivo, Avena fatua; conditions: postemergence
Procedure, shortened: (§3)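 After treating 2-leaf paddy plants or 2–18 cm postemergence plants (1 to 4 leaves) with formulated chemical, researchers kept them in a greenhouse for 13–15 days. Effects were judged visually versus controls: 0 indicates none, 100 total control.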

[11] = test system: ducksalad; assay: Test C flooded paddy test; format: in vivo, Heteranthera limosa
[12] = test system: blackgrass; assay: Test B postemergence herbicide test; format: in vivo, Alopecurus myosuroides; conditions: postemergence
Procedure, shortened: as §2

[13] = test system: velvetleaf; assay: Test B pre-/postemergence herbicide test; format: in vivo, Abutilon theophrasti; conditions: for Velvetleaf plant response rating: postemergence
Procedure, shortened: as §1

[14] = test system: barnyardgrass; assay: Test B flooded paddy test; format: in vivo, Echinochloa crus-galli; conditions: 1000 g ai/ha, scale 0 to 100 (0 no effect, 100 complete control)
Procedure, shortened: as §2

[15] = test system: barnyardgrass; assay: Test B pre-/postemergence herbicide test; format: in vivo, Echinochloa crus-galli; conditions: for Barnyardgrass plant response rating: postemergence
Procedure, shortened: as §1

[16] = test system: morningglory; assay: Test B pre-/postemergence herbicide test; format: in vivo, Ipomoea coccinea; conditions: for Morningglory plant response rating: postemergence
Procedure, shortened: as §1

[17] = test system: ducksalad; assay: Test B flooded paddy test; format: in vivo, Heteranthera limosa; conditions: 1000 g ai/ha, scale 0 to 100 (0 no effect, 100 complete control)
Procedure, shortened: as §2

[18] = test system: wheat; assay: Test B postemergence herbicide test; format: in vivo, Triticum aestivum; parameters: key to Wheat plant response rating: 0 = no effect, 100 = complete control; conditions: postemergence
Procedure, shortened: as §3

[19] = test system: Surinam grass; assay: Test B pre-/postemergence herbicide test; format: in vivo, Urochloa decumbens; conditions: for Surinam Grass plant response rating: postemergence
Procedure, shortened: as §1

[20] = test system: small flower umbrella sedge; assay: Test B flooded paddy test; format: in vivo, Cyperus difformis; conditions: 1000 g ai/ha, scale 0 to 100 (0 no effect, 100 complete control)
Procedure, shortened: as §2

[21] = test system: lambsquarters; assay: Test B pre-/postemergence herbicide test; format: in vivo, Chenopodium album; conditions: for Lambsquarters plant response rating: postemergence
Procedure, shortened: as §1

[22] = 125 g ai/ha, 0 is no effect, 100 is complete control, preemergence
[23] = 125 g ai/ha, visual rating, scale 0 (no effect) to 100 (complete control)
[24] = 500 g ai/ha, visual rating, 0 = no effect, 100 = complete control, preemergence
[25] = 500 g ai/ha, scale 0 to 100, 0 is no effect, 100 is complete control
[26] = 125 g ai/ha, scale 0 to 100 (0 no effect, 100 complete control)
[27] = 250 g ai/ha, scale of 0 to 100, 0 is no effect, 100 is complete control
[28] = 500 g ai/ha, visual rating after 12 to 14 days, scale 0 to 100 (0 no effect, 100 complete control)

SMILES: CCc1nn(C(C)C)nc1C(=O)Nc1cccc(C(=O)N2CC=CC2)c1 [Compound 359]
- Plant response rating (0 to 100 scale), Cocklebur [1, 22]: 0
- Cocklebur plant response rating [1, 23]: 10
- Plant response rating, Cocklebur [1, 24]: 30
- Cocklebur plant response rating [1, 25]: 30
- Rice plant response rating ([2]; 62 g ai/ha, scale 0 to 100): 20
- Rice plant response rating [2, 26]: 45
- Rice plant response rating [2, 27]: 65
- Plant response rating, Rice [2, 28]: 80
- Plant response rating (0 to 100 scale), Corn [3, 22]: 0
- Corn plant response rating [3, 23]: 10
- Plant response rating, Corn [3, 24]: 60
- Corn plant response rating [3, 25]: 10
- Barnyardgrass plant response rating ([4]; 62 g ai/ha, scale 0 to 100 (0 no effect, 100 complete control)): 15
- Barnyardgrass plant response rating [4, 26]: 55
- Barnyardgrass plant response rating [4, 27]: 75
- Plant response rating, Barnyardgrass [4, 28]: 75
- Rice plant response rating [5]: 70
- Plant response rating (0 to 100 scale), Foxtail, Giant [6, 22]: 60
- Foxtail, Giant plant response rating [6, 23]: 20
- Plant response rating, Foxtail, Giant [6, 24]: 100
- Foxtail, Giant plant response rating [6, 25]: 20
- Plant response rating (0 to 100 scale), Crabgrass, Large [7, 22]: 90
- Crabgrass, Large plant response rating [7, 23]: 10
- Plant response rating, Crabgrass, Large [7, 24]: 100
- Crabgrass, Large plant response rating [7, 25]: 20
- Sedge, Umbrella plant response rating ([8]; 62 g ai/ha, scale 0 to 100): 80
- Sedge, Umbrella plant response rating [8, 26]: 90
- Sedge, Umbrella plant response rating [8, 27]: 90
- Plant response rating, Sedge, Umbrella [8, 28]: 95
- Plant response rating (0 to 100 scale), Pigweed [9, 22]: 0
- Pigweed plant response rating [9, 23]: 20
- Plant response rating, Pigweed [9, 24]: 100
- Pigweed plant response rating [9, 25]: 50
- Oat, Wild plant response rating [10, 23]: 20
- Oat, Wild plant response rating [10, 25]: 30
- Ducksalad plant response rating ([11]; 62 g ai/ha, scale 0 to 100): 40
- Ducksalad plant response rating [11, 26]: 80
- Ducksalad plant response rating [11, 27]: 85
- Plant response rating, Ducksalad [11, 28]: 90
- Blackgrass plant response rating [12, 23]: 20
- Blackgrass plant response rating [12, 25]: 50
- Plant response rating (0 to 100 scale), Velvetleaf [13, 22]: 0
- Velvetleaf plant response rating [13, 23]: 20
- Velvetleaf plant response rating [13, 25]: 20
- Barnyardgrass plant response rating [14]: 70
- Plant response rating (0 to 100 scale), Barnyardgrass [15, 22]: 0
- Barnyardgrass plant response rating [15, 23]: 10
- Plant response rating, Barnyardgrass [15, 24]: 90
- Barnyardgrass plant response rating [15, 25]: 10
- Plant response rating (0 to 100 scale), Morningglory [16, 22]: 0
- Morningglory plant response rating [16, 23]: 10
- Plant response rating, Morningglory [16, 24]: 50
- Morningglory plant response rating [16, 25]: 10
- Ducksalad plant response rating [17]: 70
- Wheat plant response rating [18, 23]: 0
- Wheat plant response rating [18, 25]: 20
- Plant response rating (0 to 100 scale), Surinam Grass [19, 22]: 20
- Surinam Grass plant response rating [19, 23]: 10
- Plant response rating, Surinam Grass [19, 24]: 70
- Surinam Grass plant response rating [19, 25]: 10
- Sedge, Umbrella plant response rating [20]: 80
- Plant response rating (0 to 100 scale), Lambsquarters [21, 22]: 0
- Lambsquarters plant response rating [21, 23]: 40
- Plant response rating, Lambsquarters [21, 24]: 100
- Lambsquarters plant response rating [21, 25]: 50
